The target in the experiment is T1, KCNQ2/3 channels (Homo sapiens, UniProt O43525+O43526).
T1 construct: expressed in transfected cells
In words: Fluorescence assay using a voltage sensitive dye (fluorimetry). The experiment is classed as cell-based. The following applies: CHO-K1 cells expressing KCNQ2/3; for Emax: CHO-K1, plateau effect relative to saturated retigabine (50 μM) = 100%, negative values = antagonistic, read-out: Fluorimetry % efficacy (retigabine = 100%); for EC50: IC50 where % efficacy is negative, read-out: Fluorimetry EC50/IC50.

T1 sequence (O43526 whole entry): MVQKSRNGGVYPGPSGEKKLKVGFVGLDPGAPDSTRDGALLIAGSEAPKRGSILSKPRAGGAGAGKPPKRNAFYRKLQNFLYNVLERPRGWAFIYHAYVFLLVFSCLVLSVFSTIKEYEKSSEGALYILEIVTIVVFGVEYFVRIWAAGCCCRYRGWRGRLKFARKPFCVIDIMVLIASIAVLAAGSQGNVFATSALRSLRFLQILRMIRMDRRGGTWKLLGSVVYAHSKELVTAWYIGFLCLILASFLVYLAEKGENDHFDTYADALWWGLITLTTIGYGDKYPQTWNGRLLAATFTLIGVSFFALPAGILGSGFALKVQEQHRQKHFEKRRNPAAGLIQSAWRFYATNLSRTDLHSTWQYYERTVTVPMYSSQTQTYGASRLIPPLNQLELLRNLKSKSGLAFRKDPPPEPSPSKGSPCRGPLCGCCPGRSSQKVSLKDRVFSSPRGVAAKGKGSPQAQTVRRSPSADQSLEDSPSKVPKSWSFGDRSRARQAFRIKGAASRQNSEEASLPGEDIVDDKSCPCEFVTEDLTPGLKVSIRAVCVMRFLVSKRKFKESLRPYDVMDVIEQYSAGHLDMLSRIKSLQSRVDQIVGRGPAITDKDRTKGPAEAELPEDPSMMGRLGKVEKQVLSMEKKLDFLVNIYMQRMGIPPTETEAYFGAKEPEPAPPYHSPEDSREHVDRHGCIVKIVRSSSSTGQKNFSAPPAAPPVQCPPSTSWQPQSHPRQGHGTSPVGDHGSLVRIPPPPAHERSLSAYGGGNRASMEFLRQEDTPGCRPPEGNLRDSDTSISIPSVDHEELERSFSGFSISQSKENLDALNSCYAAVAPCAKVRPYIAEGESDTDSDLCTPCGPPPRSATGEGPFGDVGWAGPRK
T1 sequence (O43525 whole entry): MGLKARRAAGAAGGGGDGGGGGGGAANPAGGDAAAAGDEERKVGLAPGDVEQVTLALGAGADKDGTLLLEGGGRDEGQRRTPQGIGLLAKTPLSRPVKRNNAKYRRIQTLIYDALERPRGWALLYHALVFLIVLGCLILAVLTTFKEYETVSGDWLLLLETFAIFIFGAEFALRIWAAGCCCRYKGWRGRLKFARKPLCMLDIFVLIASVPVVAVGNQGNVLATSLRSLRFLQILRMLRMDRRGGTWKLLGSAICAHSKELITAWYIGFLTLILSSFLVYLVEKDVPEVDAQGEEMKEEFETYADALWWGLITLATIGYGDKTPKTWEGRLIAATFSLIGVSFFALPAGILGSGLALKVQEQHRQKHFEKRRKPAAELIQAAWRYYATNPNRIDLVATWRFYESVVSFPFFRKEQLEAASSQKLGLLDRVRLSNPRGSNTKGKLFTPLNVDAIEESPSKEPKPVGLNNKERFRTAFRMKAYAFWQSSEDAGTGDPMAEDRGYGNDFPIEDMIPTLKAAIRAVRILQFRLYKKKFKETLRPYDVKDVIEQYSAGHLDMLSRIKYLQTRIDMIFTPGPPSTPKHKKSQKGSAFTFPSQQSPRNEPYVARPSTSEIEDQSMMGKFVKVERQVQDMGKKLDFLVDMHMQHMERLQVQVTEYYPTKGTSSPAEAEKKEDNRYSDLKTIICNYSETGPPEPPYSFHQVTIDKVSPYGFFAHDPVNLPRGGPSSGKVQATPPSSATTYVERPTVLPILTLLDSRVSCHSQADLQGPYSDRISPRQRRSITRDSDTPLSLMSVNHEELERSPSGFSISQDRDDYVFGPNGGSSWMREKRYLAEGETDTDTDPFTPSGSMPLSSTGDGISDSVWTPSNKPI

In the case of `CCSc1nc(N2CCc3ccccc32)cc(C)c1C(=O)NCc1cccc(F)c1` [Example 305, 6-(2,3-Dihydro-1H-indol-1-yl)-2-ethylsulfanyl-N-[(3-fluorophenyl)-methyl]-4-methyl-pyridine-3-carboxylic acid amide], the Emax worked out at 57%.

Turning to `CCSc1nc(N2CCOCC2)cc(C)c1C(=O)NCC(C)CC(C)(C)C` (centres unmarked) [Example 306, 2-Ethylsulfanyl-4-methyl-6-morpholin-4-yl-N-(2,4,4-trimethyl-pentyl)-pyridine-3-carboxylic acid amide], the Emax was 33%.

In the case of `CCSc1nc(N(C)C2CCCC(OC)C2)cc(C)c1C(=O)NCc1cccc(F)c1` (centres unmarked) [Example 307, 2-Ethylsulfanyl-N-[(3-fluorophenyl)-methyl]-6-[(3-methoxy-cyclohexyl)-methyl-amino]-4-methyl-pyridine-3-carboxylic acid amide], the Emax was 104% and the EC50 came out at 178 nM.

Take `CCSc1nc(N2CCOCC2)cc(C)c1C(=O)NCCCC(C)(F)F` [Example 308, N-(4,4-Difluoro-pentyl)-2-ethylsulfanyl-4-methyl-6-morpholin-4-yl-pyridine-3-carboxylic acid amide]: the Emax was determined as 249% and the EC50 is 397 nM.

As to `Cc1cc(N2CCOCC2)nc(C(C)C)c1C(=O)NCc1ccc(F)cc1` [Example 309, N-[(4-Fluorophenyl)-methyl]-2-isopropyl-4-methyl-6-morpholin-4-yl-pyridine-3-carboxylic acid amide], the Emax came to 168% and the EC50 was found to be 71 nM.

As to `Cc1cc(N2CCOCC2)nc(C(C)C)c1C(=O)NCc1ccc(F)c(F)c1` [Example 310, N-[(3,4-Difluoro-phenyl)-methyl]-2-isopropyl-4-methyl-6-morpholin-4-yl-pyridine-3-carboxylic acid amide], the Emax worked out at 174% and the EC50 came out at 43 nM.

For `Cc1cc(N2CCOCC2)nc(C(C)C)c1C(=O)NCc1ccc(C(F)(F)F)cc1` [Example 311, 2-Isopropyl-4-methyl-6-morpholin-4-yl-N-[[4-(trifluoromethyl)-phenyl]-methyl]pyridine-3-carboxylic acid amide], the Emax was 146% and the EC50 was determined as 45 nM.

As to `CCSc1nc(N2CCOCC2=O)cc(C)c1C(=O)NCc1cccc(F)c1` [Example 312, 2-Ethylsulfanyl-N-[(3-fluorophenyl)-methyl]-4-methyl-6-(3-oxo-morpholin-4-yl)-pyridine-3-carboxylic acid amide], the Emax came out at 135% and the EC50 came out at 6700 nM.

For `CCCc1nc(N2CCOCC2)cc(C)c1C(=O)NCCCC(C)(C)C` [Example 313, N-(4,4-Dimethyl-pentyl)-4-methyl-6-morpholin-4-yl-2-propyl-pyridine-3-carboxylic acid amide], the Emax worked out at 229% and the EC50 was 62 nM.

Consider `Cc1cc(N2CCOCC2)nc(C(C)C)c1C(=O)NCCCC(C)(C)C` [Example 314, N-(4,4-Dimethyl-pentyl)-2-isopropyl-4-methyl-6-morpholin-4-yl-pyridine-3-carboxylic acid amide], for which the Emax is 242% and the EC50 turned out to be 18 nM.

In the case of `Cc1cc(N2CCOCC2)nc(C(C)C)c1C(=O)NCCCC(F)(F)F` [Example 315, 2-Isopropyl-4-methyl-6-morpholin-4-yl-N-(4,4,4-trifluoro-butyl)-pyridine-3-carboxylic acid amide], the Emax is 187% and the EC50 was 314 nM.

For the compound `Cc1cc(N2CCOCC2)nc(C(C)C)c1C(=O)NCc1cc(F)cc(F)c1` [Example 316, N-[(3,5-Difluoro-phenyl)-methyl]-2-isopropyl-4-methyl-6-morpholin-4-yl-pyridine-3-carboxylic acid amide], the Emax worked out at 160% and the EC50 worked out at 29 nM.

Take `Cc1cc(N2CCOCC2)nc(OC2COC2)c1C(=O)NCc1cccc(F)c1` [Example 317, N-[(3-Fluorophenyl)-methyl]-4-methyl-6-morpholin-4-yl-2-(oxetan-3-yloxy)-pyridine-3-carboxylic acid amide]: the Emax came to 116% and the EC50 came to 1120 nM.

Consider `CCSc1nc(N2CCOCC2)cc(C)c1C(=O)NCCCC(C)(C)OC` [Example 318, 2-Ethylsulfanyl-N-(4-methoxy-4-methyl-pentyl)-4-methyl-6-morpholin-4-yl-pyridine-3-carboxylic acid amide], for which the Emax amounted to 193% and the EC50 came to 2880 nM.

For `CCSc1nc(N2CCOCC2)cc(C)c1C(=O)NCCCC(C)(C)F` [Example 319, 2-Ethylsulfanyl-N-(4-fluoro-4-methyl-pentyl)-4-methyl-6-morpholin-4-yl-pyridine-3-carboxylic acid amide], the Emax was 233% and the EC50 was found to be 348 nM.

In the case of `CCCc1nc(N2CCOCC2)cc(C)c1C(=O)NCCCC(F)(F)F` [Example 320, 4-Methyl-6-morpholin-4-yl-2-propyl-N-(4,4,4-trifluoro-butyl)-pyridine-3-carboxylic acid amide], the Emax was 192% and the EC50 was 826 nM.

For `CCCc1nc(N2CCOCC2)cc(C)c1C(=O)NCc1ccc(F)c(F)c1` [Example 321, N-[(3,4-Difluoro-phenyl)-methyl]-4-methyl-6-morpholin-4-yl-2-propyl-pyridine-3-carboxylic acid amide], the Emax turned out to be 162% and the EC50 was determined as 83 nM.

For `CCCc1nc(N2CCOCC2)cc(C)c1C(=O)NCc1cc(F)cc(F)c1` [Example 322, N-[(3,5-Difluoro-phenyl)-methyl]-4-methyl-6-morpholin-4-yl-2-propyl-pyridine-3-carboxylic acid amide], the Emax was 193% and the EC50 was 80 nM.

On to `CCCc1nc(N2CCOCC2)cc(C)c1C(=O)NCc1ccc(C(F)(F)F)cc1` [Example 323, 4-Methyl-6-morpholin-4-yl-2-propyl-N-[[4-(trifluoromethyl)-phenyl]-methyl]pyridine-3-carboxylic acid amide], for which the Emax is 130% and the EC50 was 102 nM.

For the compound `CCSc1nc(N2CCOCC2)cc(C)c1C(=O)NCC(=O)CC(C)(C)C` [Example 324, N-(4,4-Dimethyl-2-oxo-pentyl)-2-ethylsulfanyl-4-methyl-6-morpholin-4-yl-pyridine-3-carboxylic acid amide], the Emax came out at 166% and the EC50 came out at 834 nM.

Take `CCSc1nc(N2CC3CCC(C2)O3)cc(C)c1C(=O)NCc1cccc(F)c1` [Example 325, 2-Ethylsulfanyl-N-[(3-fluorophenyl)-methyl]-4-methyl-6-(8-oxa-3-azabicyclo[3.2.1]octan-3-yl)-pyridine-3-carboxylic acid amide]: the Emax is 153% and the EC50 worked out at 282 nM.

As to `CCCc1nc(N2CCOCC2)cc(C)c1C(=O)NCc1ccc(Cl)cc1` [Example 326, N-[(4-Chlorophenyl)-methyl]-4-methyl-6-morpholin-4-yl-2-propyl-pyridine-3-carboxylic acid amide], the Emax was 163% and the EC50 is 59 nM.

On to `Cc1cc(N2CCOCC2)nc(C(C)C)c1C(=O)NCc1ccc(Cl)cc1` [Example 327, N-[(4-Chlorophenyl)-methyl]-2-isopropyl-4-methyl-6-morpholin-4-yl-pyridine-3-carboxylic acid amide], for which the Emax was found to be 173% and the EC50 turned out to be 50 nM.

For the origin of these results see US9168259B2 (GRÜNENTHAL GMBH, priority 2010, dated 2015).
